Measured values taken from patent publication US20190209506A1, “METHODS OF REDUCING OR PREVENTING OXIDATION OF LDL OR LIPID MEMBRANES IN A SUBJECT IN NEED THEREOF” (Amarin Pharmaceuticals Ireland Limited, priority 2018, published 2019).
Values joined by “and” are separate entries in the source; they are usually repeats but may differ in a detail not shown here. Equal entries are not always repeated.

Assays:
human sdLDL [1] = test: Copper-induced sdLDL oxidation with fatty acids, TBARS/MDA (Example 14); format: biochemical; settings: 1.0 μM; for effect on lipoprotein oxidation compared to vehicle / inhibition of lipoprotein oxidation versus vehicle: 40 minutes; for effect on oxidation: 60 minutes
Experimental: Venous blood was collected from healthy volunteers into vacutainer tubes. Plasma was separated by centrifugation at 3000 g for 25 min at 4° C. and adjusted to a density of 1.020 g/mL with KBr. sdLDL was isolated from the plasma of healthy volunteers by iodixanol density gradient ultracentrifugation and adjusted to a final apolipoprotein concentration of 2 mg/mL. An aliquot of sdLDL (50 μL) was incubated with either 10 μL vehicle (ethanol) or 10 μL FA (EPA, ETE, AA, EA, DHA, DPA, ALA, LA or SA) treatment stock solution (100 μM) for 30 min at 37° C. Oxidation was initiated with addition of initiator CuSO4 (10.0 μM). At certain time points (0, 40, 60, and 120 minutes), […] were removed from each subfraction and combined with 1.0 mL thiobarbituric acid (0.5%), 10 μL trichloroacetic acid (10%), 10 μL butylated hydroxytoluene (BHT; 35 mM in ethanol), and 10 μL ethylenediaminetetraacetic acid (EDTA; 5 mM). Sample aliquots were incubated at 100° C. for 30 min and then assayed for the formation of thiobarbituric acid reactive substances (TBARS), which have a molar absorptivity (ε) value of 1.56×105 M^−1 cm^−1 at 532 nm and are largely derived from the reaction of thiobarbituric acid with MDA, a reactive aldehyde produced by sdLDL oxidation. Sample TBARS concentrations were determined spectrophotometrically by measuring sample absorbances against a standard curve derived from the hydrolysis of 1,1,3,3-tetramethoxypropane.

human sdLDL [2] = test: Copper-induced sdLDL oxidation, TBARS (Example 7); format: biochemical; settings: 10 μM; 1 hour
Experimental: An experiment to study the antioxidant effect of EPA in LDL and small dense LDL (“sdLDL”) was performed. LDL and sdLDL were isolated from the plasma of healthy volunteers by iodixanol density gradient ultracentrifugation, and adjusted to a final apolipoprotein concentration of 2 mg/mL. […] Lipid oxidation was initiated with 10 μM CuSO4 and monitored by the colorimetric detection of thiobarbituric acid reactive substances (TBARS) for 1 hr. Vitamin E was also incubated with sample aliquots as a positive control.

human LDL = test: Copper-induced oxidation of unfractionated LDL, TBARS (Example 7); format: biochemical; settings: 10 μM; 1 hour
Experimental: An experiment to study the antioxidant effect of EPA in LDL and small dense LDL (“sdLDL”) was performed. LDL and sdLDL were isolated from the plasma of healthy volunteers by iodixanol density gradient ultracentrifugation, and adjusted to a final apolipoprotein concentration of 2 mg/mL. […] Vitamin E was also incubated with sample aliquots as a positive control.

[3] = Membrane cholesterol domain structural integrity, x-ray diffraction (Example 9); settings: D/P mole ratio 1:30, C/P 1.5:1
Experimental: Multilamellar vesicles (MLVs) were prepared as binary mixtures that include palmitoyloleoylphosphatidylcholine (POPC) (1.0 mg total phospholipid per sample) and cholesterol at an elevated cholesterol-to-phospholipid (C/P) mole ratio of 1.5:1. […] Samples were shell-dried under nitrogen gas and placed under vacuum for 3 hours to remove residual solvent at room temperature. After desiccation, each sample was resuspended in saline buffer (0.5 mM HEPES, 154 mM NaCl, pH 7.3) to yield a final phospholipid concentration of 2.5 mg/mL. Lipid suspensions were then vortexed for 3 minutes at ambient temperature to form MLVs.
Briefly, a 100 μL aliquot of each MLV preparation (containing 250 μg MLV) was transferred to a Lucite® sedimentation cell fitted with an aluminum foil substrate designed to collect MLVs into a single membrane pellet upon centrifugation. Samples were then loaded into a Sorvall AH-629 swinging bucket rotor (DuPont Corp., Wilmington, Del.) and centrifuged at 35,000 g, 5° C., for 90 minutes.
After centrifugal orientation, sample supernatants were aspirated and aluminum foil substrates, each supporting a single membrane pellet, were removed from the sedimentation cells. Sample pellets were dried for 5-10 minutes at ambient conditions, mounted onto curved glass supports, and placed in hermetically-sealed, brass or glass containers (for immediate analysis or temporary storage, respectively). All x-ray diffraction experiments were conducted at 20° C., 74% relative humidity. The latter was established by exposing membrane samples to saturated solutions of […] (K2C4H4O6.½H2O) for at least 1 hour prior to experimental analysis.
Oriented membrane samples were aligned at grazing incidence with respect to a collimated, mono-chromatic CuKα x-ray beam (Kα1 and Kα2 unresolved; λ=1.54 Å) produced by a Rigaku Rotaflex RU-200, high-brilliance microfocus generator (Rigaku-MSC, The Woodlands, Tex.) as previously described (Mason et al., Biophys. J., vol. 55(4), pages 769-778 (1989)). The samples were initially subjected to x-ray diffraction analysis at least 12 hours after formation of the membrane pellets and retested for up to several days. Analytical x-rays were generated by electron bombardment of a rotating copper anode and are filtered through a thin nickel foil to provide monochromatic radiation (λ=1.54 Å). Collimation of the x-ray beam was achieved using a single Franks mirror. Diffraction data were collected on a one-dimensional, position-sensitive electron detector (Hecus X-ray Systems, Graz, Austria) at a sample-to-detector distance of 150 mm from the sample site.
The d-space for any given membrane multi bilayer is a measurement of the unit cell periodicity of the membrane lipid bilayer (e.g., the distance from the center of one lipid bilayer to the next including surface hydration), and is calculated from Bragg's Law, hλ=2d sin θ, where h is the diffraction order, λ is the wavelength of the x-ray radiation (1.54 Å), d is the membrane lipid bilayer unit cell periodicity, and θ is the Bragg angle equal to one-half the angle between the incident beam and scattered beam.
The presence of cholesterol domains in a given membrane sample results in the production of distinct Bragg (diffraction) peaks having singular periodicity values of 34 and 17 Å (typically referred to as first- and second-order cholesterol domain peaks). Under the specific temperature and relative humidity conditions established for these experiments, the second-order, 17 Å cholesterol domain peak was well-delineated from other, neighboring cholesterol and phospholipid diffraction peaks and was thus used to quantitate relative cholesterol domain peak intensity. Routines written in Origin 8.6 (OriginLab Corporation, Northampton, Mass.) were used to determine total peak area (associated with all diffraction peaks in a given pattern) against which the second-order cholesterol domain peak was normalized.

human sdLDL [4] = test: Glucose-induced sdLDL oxidation, MDA/TBARS (Example 10); format: biochemical; settings: 10 μM; glucose 200 mg/dL; 1 hr
Experimental: Vitamin E (α-tocopherol) purchased from Sigma-Aldrich was prepared in ethanol at 1.0 mM (ε=3.06×10^4M^−1 cm^−1 at 294 nm) prior to experimental use. Test compounds were further diluted in ethanol or aqueous buffer as needed. Phosphate Buffered Saline (PBS) purchased from Sigma-Aldrich was prepared in double distilled water at 10 mM (138 mM NaCl, 2.7 mM KCl, pH 7.4). Glucose prepared in PBS was added to test samples to achieve a final concentration of 11.0 mM (200 mg/dL).
LDL and sdLDL were isolated from the plasma of healthy volunteers by iodixanol density gradient ultracentrifugation and adjusted to a final apolipoprotein concentration of 10 mg/mL. […] Sample aliquots were incubated at 100° C. for 30 minutes and then assayed for the formation of thiobarbituric acid-reactive substances (TBARS), having a molar absorptivity (ε) value of 1.56×10^5 M^−1 cm^−1 at 532 nm and were derived principally from the reaction of thiobarbituric acid with malondialdehyde (MDA). Lipid oxidation was measured by the colorimetric detection of malondialdehyde (MDA), a marker of oxidative stress.

[5] = LOOH formation in membrane vesicles, fatty acid comparison (Example 16); format: biochemical; settings: 5 μM; 0.1 μM copper sulfate, 48 hours
Experimental: Iodometric approaches were used to measure in vitro LOOH formation in membrane vesicles reconstituted as binary mixtures of cholesterol and dilinoleoyl phosphatidylcholine. Vesicles were prepared at a cholesterol-to-phospholipid mole ratio of 0.6:1 and subjected to autoxidation (e.g., lipid oxidation) at 37° C. Lipid oxidation was stimulated with 0.1 μM copper sulfate for 48 hours. All FAs were delivered at 5 and 10 μM.

Row | Compound | effect on lipoprotein oxidation compared to vehicle (human sdLDL [1]) | MDA Equivalents (Mean ± SD) (human sdLDL [1]; time point 0 min) | MDA Equivalents (Mean ± SD) (human sdLDL [1]; time point 40 min) | MDA Equivalents (Mean ± SD) (human sdLDL [1]; time point 60 min) | MDA Equivalents (Mean ± SD) (human sdLDL [1]; time point 120 min) | % change Vs control (cholesterol domain peak intensity) [3] | Relative Cholesterol Domain Peak Intensity [3] | further results
1 | CCCCCCCCCCCCCCCCCCCC(=O)O [EA, eicosanoic acid] | did not completely inhibit oxidation compared to vehicle | 1.06 ± 0.09 µM | 11.27 ± 0.28 µM | 11.65 ± 0.65 µM | 13.22 ± 0.68 µM | – | – | –
2 | O=C(O)c1cccnc1 [niacin, nicotinic acid] | – | – | – | – | – | −35% | 27.5±12.2 | effect on sdLDL oxidation compared to vehicle-treated controls (human sdLDL [2]): no significant effect on sdLDL oxidation; effect on unfractionated LDL oxidation (human LDL): no significant effect on unfractionated LDL oxidation; % change Vs control (cholesterol domain peak intensity) ([3]; listed as Niacin): −35.0 ± 30.8%; Relative Cholesterol Domain Peak Intensity ([3]; listed as Niacin): 27.5 ± 12.2; effect on glucose-induced sdLDL oxidation (human sdLDL [4]): did not inhibit glucose-induced sdLDL oxidation
3 | CC1(C)[C@@H](O[C@H]2O[C@H](C(=O)O)[C@@H](O)[C@H](O)[C@H]2O[C@@H]2O[C@H](C(=O)O)[C@@H](O)[C@H](O)[C@H]2O)CC[C@]2(C)[C@H]3C(=O)C=C4[C@@H]5C[C@@](C)(C(=O)O)CC[C@]5(C)CC[C@@]4(C)[C@]3(C)CC[C@@H]12 [glycyrrhizin] | – | – | – | – | – | −54.9 ± 12.3% | 19.1±1.2 | reduction in cholesterol domain peaks compared to vehicle [3]: 54.9%; Relative Cholesterol Domain Peak Intensity ([3]; listed as Glyc): 19.1 ± 1.2
4 | CCCCC/C=C\C/C=C\CCCCCCCC(=O)O [LA, linoleic acid] | did not completely lipoprotein oxidation | 0.57 ± 0.12 µM | 10.74 ± 0.27 µM | 11.89 ± 0.30 µM | 12.55 ± 0.78 µM | – | – | –
5 | CC/C=C\C/C=C\C/C=C\CCCCCCCC(=O)O [ALA, α-linolenic acid] | – | 0.40 ± 0.06 µM | 8.91 ± 0.24 µM | 11.48 ± 0.18 µM | 12.94 ± 0.40 µM | −46.8% and −45.2 ± 11.3% | 23.2 ± 0.6 | inhibition of lipoprotein oxidation versus vehicle (human sdLDL [1]): 16% and 15%; effect on oxidation (human sdLDL [1]): failed to inhibit oxidation at 60 minutes; reduction of LOOH levels compared to the vehicle [5]: 27%
6 | Cc1ccc(C)c(OCCCC(C)(C)C(=O)O)c1 [gemfibrozil] | – | – | – | – | – | 11% | 46.9±12.6 | effect on sdLDL oxidation compared to vehicle-treated controls (human sdLDL [2]): no significant effect on sdLDL oxidation; effect on unfractionated LDL oxidation (human LDL): no significant effect on unfractionated LDL oxidation; % change Vs control (cholesterol domain peak intensity) ([3]; listed as Gemfib): −10.9 ± 43.3%; Relative Cholesterol Domain Peak Intensity ([3]; listed as Gemfib): 46.9 ± 12.6; effect on glucose-induced sdLDL oxidation (human sdLDL [4]): did not inhibit glucose-induced sdLDL oxidation
7 | CCCCCCCC/C=C\CCCCCCCC(=O)O [OA, oleic acid] | did not completely lipoprotein oxidation | 0.78 ± 0.13 µM | 10.98 ± 0.36 µM | 12.00 ± 0.19 µM | 12.57 ± 0.38 µM | – | – | –
8 | CCCCC/C=C\C/C=C\C/C=C\C/C=C\CCCC(=O)O [AA, arachidonic acid] | failed to inhibit lipoprotein oxidation | 0.67 ± 0.06 µM | 10.89 ± 0.35 µM | 11.86 ± 0.46 µM | 12.88 ± 0.60 µM | −45.2% and −46.8 ± 15.2% | 22.5 ± 4.3 | –
9 | CCCCCCCCCCCCCCCCCC(=O)O [SA, stearic acid] | did not completely inhibit oxidation compared to vehicle | 0.78 ± 0.01 µM | 10.60 ± 0.21 µM | 12.07 ± 0.23 µM | 12.33 ± 0.10 µM | – | – | –
10 | eicosatrienoic acid [ETE] | – | 0.40 ± 0.11 µM | 7.19 ± 0.43 µM | 10.90 ± 0.28 µM | 12.57 ± 0.15 µM | – | – | inhibition of lipoprotein oxidation versus vehicle (human sdLDL [1]): 32%; effect on oxidation (human sdLDL [1]): failed to inhibit oxidation at 60 minutes; reduction of LOOH levels compared to the vehicle [5]: 36%
